From patent US9670221B2, “Furopyridines as bromodomain inhibitors” (GlaxoSmithKline Intellectual Property (No.2) Limited, priority 2013, dated 2017) come the findings set out here.

Counter-ions that a name gives are not always drawn.

The target of the test is T1, BRD4 BD1 (Homo sapiens, UniProt O60885, Y390A).
T1 construct: BRD4 (1-477) (Y97A) and (Y390A); made in house; host or cells: E. coli (pET15b vector)
In words: TR-FRET binding assay, BRD4 BD1 (mutant protein). The note with it: BRD4 (1-477) mutant, 10 nM protein, read-out: pIC50 in the BRD4 BD1 assay (converted). The method, then:
Time Resolved Fluorescence Resonance Energy Transfer (TR-FRET) Assay
Binding was assessed using a time resolved fluorescent resonance energy transfer binding assay. This utilises a 6 His purification tag at the N-terminal of the proteins as an epitope for an anti-6 His antibody labeled with Europium chelate (PerkinElmer AD0111) allowing binding of the Europium to the proteins which acts as the donor fluorophore. A small molecule, high affinity binder of the bromodomains BRD2, BRD3, BRD4 and BRDT has been labeled with Alexa Fluor647 (Reference Compound X) and this acts as the acceptor in the FRET pair.
Assay Principle: In the absence of a competing compound, excitation of the Europium causes the donor to emit at λ618 nm which excites the Alexa labelled bromodomain binding compound leading to an increased energy transfer that is measurable at λ647 […]. In the presence of a sufficient concentration of a compound that can bind these proteins, the interaction is disrupted leading to a quantifiable drop in fluorescent resonance energy transfer.
The binding of the compounds of formula (I) to Bromodomains BRD2, BRD3, BRD4 and BRDT was assessed using mutated proteins to detect differential binding to either Binding Domain 1 (BD1) or Binding Domain 2 (BD2) on the bromodomain. These single residue mutations in the acetyl lysine binding pocket greatly lower the affinity of the fluoroligand (Reference Compound X) for the mutated domain (>1000 fold selective for the non-mutated domain). Therefore in the final assay conditions, binding of the fluoroligand to the mutated domain cannot be detected and subsequently the assay is suitable to determine the binding of compounds to the single non-mutated bromodomain.
Protein production: Recombinant Human Bromodomains [(BRD2 (1-473) (Y113A) and (Y386A), BRD3 (1-435) (Y73A) and (Y348A) BRD4 (1-477) (Y97A) and (Y390A) and BRDT (1-397) (Y66A) and (Y309A)] were expressed in E. coli cells (in pET15b vector for BRD2/3/4 and in pET28a vector for BRDT) with a 6-His tag at the N-terminal. The His-tagged Bromodomain pellet was resuspended in 50 mM HEPES (pH7.5), 300 mM NaCl, 10 mM imidazole & 1 μl/mL protease inhibitor cocktail and extracted from the E. coli cells using sonication and purified using a nickel sepharose high performance column, the proteins were washed and then eluted with a linear gradient of 0-500 mM imidazole with buffer 50 mM HEPES (pH7.5), 150 mM NaCl, 500 mM imidazole, over 20 column volumes. Final purification was completed by Superdex 200 prep grade size exclusion column. Purified protein was stored at −80° C. in 20 mM HEPES pH 7.5 and 100 mM NaCl. Protein identity was confirmed by peptide mass fingerprinting and predicted molecular weight confirmed by mass spectrometry.
Protocol for Bromodomain BRD2, 3, 4 and T, BD1^+BD2 mutant assays: All assay components were dissolved in buffer composition of 50 mM HEPES pH7.4, 50 mM NaCl, 5% Glycerol, 1 mM DTT and 1 mM CHAPS. The final concentration of bromodomain proteins were 10 nM and the Alexa Fluor647 ligand was at Kd. These components were premixed and 5 μl of this reaction mixture was added to all wells containing 50 nl of various concentrations of test compound or DMSO vehicle (0.5% DMSO final) in Greiner 384 well black low volume microtitre plates and incubated in dark for 30 minutes at room temperature. 5 μl of detection mixture containing 1.5 nM final concentration anti-6His Europium chelate was added to all wells and a further dark incubation of at least 30 minutes was performed. Plates were then read on the Envision platereader, (λex=317 nm, donor λem=615 nm; acceptor λem=665 nm; Dichroic LANCE dual). Time resolved fluorescent intensity measurements were made at both emission wavelengths and the ratio of acceptor/donor was calculated and used for data analysis. All data was normalized to the mean of 16 high (inhibitor control—Example 11 of WO 2011/054846A1) and 16 low (DMSO) control wells on each plate. […]

As for `CC(=O)Nc1cc(-c2cn(C)c(=O)c3cc(CN4CCC(=O)NCC4C)oc23)ccn1` (centres unmarked) [Example 100, N-(4-(5-methyl-2-((2-methyl-5-oxo-1,4-diazepan-1-yl)methyl)-4-oxo-4,5-dihydrofuro[3,2-c]pyridin-7-yl)pyridin-2-yl)acetamide], the IC50 was no more than 100 nM.

As to `CC(=O)Nc1cc(-c2cn(C)c(=O)c3cc(CN4CCN(S(C)(=O)=O)[C@@H](C)C4)oc23)ccn1` [Example 108, (S)—N-(4-(5-methyl-2-((3-methyl-4-(methylsulfonyl)piperazin-1-yl)methyl)-4-oxo-4,5-dihydrofuro[3,2-c]pyridin-7-yl)pyridin-2-yl)acetamide], the IC50 is no more than 100 nM.

As to `C[C@@H]1CN(S(C)(=O)=O)CCN1Cc1cc2c(=O)n(C)cc(-c3ccncc3OCC3CCO3)c2o1` (stereo partly drawn) [Example 41, 5-methyl-2-(((R)-2-methyl-4-(methylsulfonyl)piperazin-1-yl)methyl)-7-(3-(oxetan-2-ylmethoxy)pyridin-4-yl)furo[3,2-c]pyridin-4(5H)-one], the IC50 is no more than 100 nM.

For the compound `Cn1cc(-c2ccncc2OCC2CC2)c2oc(CN3CCCNCC3)cc2c1=O` [Example 55, 2-((1,4-diazepan-1-yl)methyl)-7-(3-(cyclopropylmethoxy)pyridin-4-yl)-5-methylfuro[3,2-c]pyridin-4(5H)-one hydrochloride], the IC50 was no more than 100 nM.

For `C[C@@H]1CN(S(C)(=O)=O)CCN1Cc1cc2c(=O)n(C)cc(-c3cccnc3NCC3CC3)c2o1` [Example 49, (R)-7-(2-((cyclopropylmethyl)amino)pyridin-3-yl)-5-methyl-2-((2-methyl-4-(methylsulfonyl)piperazin-1-yl)methyl)furo[3,2-c]pyridin-4(5H)-one], the IC50 is no more than 100 nM.

On to `CC(=O)Nc1cc(-c2cn(C)c(=O)c3cc(CN4CCS(=O)(=O)CC4)oc23)ccn1` [Example 87, N-(4-(2-((1,1-dioxidothiomorpholino)methyl)-5-methyl-4-oxo-4,5-dihydrofuro[3,2-c]pyridin-7-yl)pyridin-2-yl)acetamide], for which the IC50 is no more than 100 nM.

With `CC(c1cc2c(=O)n(C)cc(-c3ccnc(OCC4CCOCC4)c3)c2o1)N1CCN(S(C)(=O)=O)CC1` (single isomer, unassigned) [Example 21a, 5-methyl-2-(1-(4-(methylsulfonyl)piperazin-1-yl)ethyl)-7-(2-((tetrahydro-2H-pyran-4-yl)methoxy)pyridin-4-yl)furo[3,2-c]pyridin-4(5H)-one], the IC50 was no more than 100 nM.

Consider `COC(C)COc1cnccc1-c1cn(C)c(=O)c2cc(CN3CCN(S(C)(=O)=O)C[C@H]3C)oc12` (stereo partly drawn) [Example 78, 7-(3-(2-methoxypropoxy)pyridin-4-yl)-5-methyl-2-(((R)-2-methyl-4-(methylsulfonyl)piperazin-1-yl)methyl)furo[3,2-c]pyridin-4(5H)-one], for which the IC50 was no more than 100 nM.

On to `C[C@@H]1CN(S(C)(=O)=O)CCN1Cc1cc2c(=O)n(C)cc(-c3ccncc3OCC(F)F)c2o1` [Example 74, (R)-7-(3-(2,2-difluoroethoxy)pyridin-4-yl)-5-methyl-2-((2-methyl-4-(methylsulfonyl)piperazin-1-yl)methyl)furo[3,2-c]pyridin-4(5H)-one], for which the IC50 was no more than 100 nM.

On to `CC(=O)Nc1cc(-c2cn(C)c(=O)c3cc(CN4CCS(=O)(=O)CC4C)oc23)ccn1` (centres unmarked) [Example 102, N-(4-(5-methyl-2-((3-methyl-1,1-dioxidothiomorpholino)methyl)-4-oxo-4,5-dihydrofuro[3,2-c]pyridin-7-yl)pyridin-2-yl)acetamide], for which the IC50 was no more than 100 nM.

For the compound `C[C@@H]1CN(S(C)(=O)=O)CCN1Cc1cc2c(=O)n(C)cc(-c3ccnc(OCCN4CCCC4)c3)c2o1` [Example 27, (R)-5-methyl-2-((2-methyl-4-(methylsulfonyl)piperazin-1-yl)methyl)-7-(2-(2-(pyrrolidin-1-yl)ethoxy)pyridin-4-yl)furo[3,2-c]pyridin-4(5H)-one], the IC50 is no more than 100 nM.
